US20240101749A1, “RESIN COMPOSITION” (4D MEDICINE LIMITED, priority 2021, published 2024)

Assays:
[1] = UV-vis absorption spectrum in acetone; assay type: physicochemical
Description: Referring now to FIG. 1B, there is shown a synthetic pathway to Reactive Diluent 1, 2, and 3. […] Reactive diluents of the invention are non-white coloured.
The spectra 2a and 2b of Reactive Diluent 3 were recorded in spectroscopy grade acetone, diluted from 1M stock solutions down to 10 μM using serial dilutions. Absorption behaviour was examined from 200 nm to 800 nm, at 1 nm increments, using a ThermoFisher 350 UV-vis spectrophotometer (ThermoFisher Scientific, UK). Absorption maxima at 365, 405, 455, and 500 nm were recorded for comparison.
(§1) Referring also to FIG. 3, there is shown a series of graphs illustrating the absorption behaviour of the resin components in spectroscopy grade acetone, diluted from 1 M stock solutions down to 10 μM using serial dilutions. Absorption behaviour was examined from 200 nm to 800 nm, at 1 nm increments, with absorption maxima quantified at 365, 405, 455, and 500 nm, as indicated in the box in each graph.

[2] = Concentration at which Reactive Diluent 3 acts as a photoinhibitor (absorption vs concentration, inflection point); assay type: physicochemical
Description: as §1
This was used to determine the concentration at which Reactive Diluent 3 would act as a photoinhibitor for wavelengths of interest. At 365 nm, the inflection point of the logarithmic plot of the linear fit was located at ca 0.015M; 405 nm inflection point was located at 0.0131M; 450 nm inflection point was found at 0.099M; 500 nm inflection point was located at 0.1312M.

Compound	absorption maximum (λmax) [1]	concentration needed in a resin composition to function as a photoinhibitor [2]	inflection point of the logarithmic plot of the linear fit ([2]; 365 nm, acetone) [M]	inflection point ([2]; 405 nm, acetone) [M]	inflection point ([2]; 450 nm, acetone) [M]	inflection point ([2]; 500 nm, acetone) [M]
C=CCOC(=O)NCC1(C)CC(NC(=O)OCC=C)CC(C)(C)C1 (centres unmarked) [Reactive Diluent 1]	do not exhibit an absorption maximum (λmax) of between 350 and 520 nm					
C=CCNC(=O)NCC1(C)CC(NC(=O)NCC=C)CC(C)(C)C1 (centres unmarked) [Reactive Diluent 2]	do not exhibit an absorption maximum (λmax) of between 350 and 520 nm					
C=CCN1C(=O)CC(=O)N(CC2(C)CC(N3C(=O)CC(=O)N(CC=C)C3=O)CC(C)(C)C2)C1=O (centres unmarked) [Reactive Diluent 3]	ca. 450 nm	at least 0.015 M	~0.015	0.0131	0.099	0.1312
